Measurements from article PMC5822518 (Pharmacognosy Magazine, 2018).
“Also recorded” adds a separate entry of the source. Like-named read-outs stand apart in the source and are kept apart here.

Assays:
[1] = biological target: CYP2E1 (Homo sapiens, UniProt P05181); assay: CYP2E1 inhibition, HPLC-UV assay of 6-hydroxychlorzoxazone formation; format: in vitro ADME; settings: graded by inhibition evaluation standards
[2] = tested on: rheumatoid arthritis; settings: 500 mg daily for 8 weeks, 50 women with rheumatoid arthritis; cited from earlier work
[3] = biological target: CYP3A4 (Homo sapiens, UniProt P08684); assay: CYP3A4 fluorescence-based high throughput inhibition assay; format: in vitro ADME; settings: graded by inhibition evaluation standards
Sequence of CYP3A4 (P08684 whole entry): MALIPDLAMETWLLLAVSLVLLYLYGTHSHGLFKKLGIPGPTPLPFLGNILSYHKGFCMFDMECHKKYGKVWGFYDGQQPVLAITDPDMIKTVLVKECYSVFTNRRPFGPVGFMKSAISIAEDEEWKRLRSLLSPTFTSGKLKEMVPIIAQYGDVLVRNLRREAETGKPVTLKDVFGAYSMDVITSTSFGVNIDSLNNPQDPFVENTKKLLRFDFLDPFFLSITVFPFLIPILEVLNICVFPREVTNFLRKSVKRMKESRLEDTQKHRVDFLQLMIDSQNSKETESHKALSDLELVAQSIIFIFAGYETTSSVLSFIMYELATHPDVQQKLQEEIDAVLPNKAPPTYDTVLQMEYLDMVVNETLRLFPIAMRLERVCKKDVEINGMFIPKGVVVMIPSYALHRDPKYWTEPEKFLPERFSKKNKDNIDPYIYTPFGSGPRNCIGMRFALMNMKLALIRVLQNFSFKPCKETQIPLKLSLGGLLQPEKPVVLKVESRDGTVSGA

[4] = biological target: T1, CYP2C19 (Homo sapiens, UniProt P33261); assay: CYP2C19 fluorescence-based high throughput inhibition assay; format: in vitro ADME; settings: graded by inhibition evaluation standards
T1 sequence (P33261 whole entry): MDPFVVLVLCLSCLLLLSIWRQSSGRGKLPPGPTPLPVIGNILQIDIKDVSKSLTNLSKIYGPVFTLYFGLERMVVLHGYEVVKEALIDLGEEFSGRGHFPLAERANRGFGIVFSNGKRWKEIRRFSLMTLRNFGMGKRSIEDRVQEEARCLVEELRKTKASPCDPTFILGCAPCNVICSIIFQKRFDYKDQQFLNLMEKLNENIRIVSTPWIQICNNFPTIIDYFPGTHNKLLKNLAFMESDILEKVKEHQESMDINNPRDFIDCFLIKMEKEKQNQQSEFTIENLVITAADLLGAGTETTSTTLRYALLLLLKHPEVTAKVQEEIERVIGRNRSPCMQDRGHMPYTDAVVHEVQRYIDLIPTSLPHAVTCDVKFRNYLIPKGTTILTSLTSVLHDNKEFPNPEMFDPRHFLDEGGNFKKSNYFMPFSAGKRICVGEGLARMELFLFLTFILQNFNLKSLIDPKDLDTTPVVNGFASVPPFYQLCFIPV

[5] = biological target: T2, CYP1A2 (Homo sapiens, UniProt P05177); assay: CYP1A2 fluorescence-based high throughput inhibition assay; format: in vitro ADME; settings: graded by inhibition evaluation standards
T2 sequence (P05177 1-516): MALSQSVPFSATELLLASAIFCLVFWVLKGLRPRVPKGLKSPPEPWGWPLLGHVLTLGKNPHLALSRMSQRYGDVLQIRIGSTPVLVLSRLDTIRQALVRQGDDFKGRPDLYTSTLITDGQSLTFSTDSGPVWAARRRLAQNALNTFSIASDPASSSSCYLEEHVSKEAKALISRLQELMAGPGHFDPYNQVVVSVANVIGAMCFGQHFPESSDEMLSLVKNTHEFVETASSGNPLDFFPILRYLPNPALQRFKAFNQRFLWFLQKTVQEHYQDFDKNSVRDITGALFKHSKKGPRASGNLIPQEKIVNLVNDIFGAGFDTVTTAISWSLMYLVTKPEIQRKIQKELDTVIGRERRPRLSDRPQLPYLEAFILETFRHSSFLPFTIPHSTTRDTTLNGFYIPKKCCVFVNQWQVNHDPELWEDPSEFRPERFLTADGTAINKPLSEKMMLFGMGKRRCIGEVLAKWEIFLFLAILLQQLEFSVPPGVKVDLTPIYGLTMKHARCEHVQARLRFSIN

[6] = biological target: T3, CYP2D6 (Homo sapiens, UniProt P10635); settings: HLMs; cited from earlier work
T3 sequence (P10635 whole entry): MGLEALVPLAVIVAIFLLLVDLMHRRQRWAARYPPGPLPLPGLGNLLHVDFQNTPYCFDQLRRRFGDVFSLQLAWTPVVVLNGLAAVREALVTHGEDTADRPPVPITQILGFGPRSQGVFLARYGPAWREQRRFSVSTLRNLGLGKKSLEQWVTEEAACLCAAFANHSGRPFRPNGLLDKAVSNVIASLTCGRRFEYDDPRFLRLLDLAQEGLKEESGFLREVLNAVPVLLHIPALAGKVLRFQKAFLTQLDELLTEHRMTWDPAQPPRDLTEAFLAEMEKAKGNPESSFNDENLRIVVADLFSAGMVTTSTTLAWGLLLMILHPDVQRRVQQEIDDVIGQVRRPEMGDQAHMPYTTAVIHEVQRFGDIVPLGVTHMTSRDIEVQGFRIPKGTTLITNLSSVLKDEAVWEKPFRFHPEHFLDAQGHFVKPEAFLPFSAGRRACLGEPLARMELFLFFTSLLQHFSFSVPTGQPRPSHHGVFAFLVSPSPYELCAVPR

[7] = biological target: T1, CYP2C19; settings: HLMs; cited from earlier work
[8] = biological target: T3, CYP2D6; assay: CYP2D6 fluorescence-based high throughput inhibition assay; format: in vitro ADME; settings: graded by inhibition evaluation standards
[9] = tested on: CYP3A2; settings: diabetic rats, single dose TQ; cited from earlier work
[10] = cited from earlier work

Sequence of CYP2E1 (P05181 whole entry): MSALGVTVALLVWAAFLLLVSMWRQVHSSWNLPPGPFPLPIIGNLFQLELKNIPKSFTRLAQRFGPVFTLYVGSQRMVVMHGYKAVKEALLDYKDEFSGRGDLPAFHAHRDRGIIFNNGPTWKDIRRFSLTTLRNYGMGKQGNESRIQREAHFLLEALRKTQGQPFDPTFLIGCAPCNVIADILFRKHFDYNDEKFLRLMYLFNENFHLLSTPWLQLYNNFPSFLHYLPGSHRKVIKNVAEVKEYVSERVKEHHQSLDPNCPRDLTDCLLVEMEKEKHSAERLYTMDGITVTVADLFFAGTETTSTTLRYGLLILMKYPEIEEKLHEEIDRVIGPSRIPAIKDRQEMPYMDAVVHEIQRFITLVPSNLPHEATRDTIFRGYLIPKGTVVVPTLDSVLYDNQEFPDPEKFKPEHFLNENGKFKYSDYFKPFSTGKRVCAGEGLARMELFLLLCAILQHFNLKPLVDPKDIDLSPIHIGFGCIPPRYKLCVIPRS

Row | SMILES | inhibitory effect on CYP2E1 activity (in words) [1] | clinical symptoms, disease activity, hs-TNF-α and erythrocyte sedimentation rate [2] | inhibitory effect on CYP3A4 activity (in words) [3] | inhibitory effect on CYP2C19 activity (in words) [4] | inhibitory effect on CYP1A2 activity (in words) [5] | inhibition of CYP2D6 (in words) [6] | inhibition of CYP2C19 (in words) [7] | inhibitory effect on CYP2D6 activity (in words) [8] | hepatic protein expressions of CYP3A2 enzymes [9] | increase in t½ of glibenclamide ([10]; chronic administration of TQ) [%] | increase in AUC of glibenclamide ([10]; diabetic rats, single dose TQ) [%] | increase in t½ of glibenclamide ([10]; diabetic rats, single dose TQ) [%]
1 | O=c1c(O)c(-c2ccc(O)c(O)c2)oc2cc(O)cc(O)c12 [QR, Quercetin] | neither QR nor TQ has any significant inhibitory effect | significant improvements | moderate to strong inhibitory effect | moderate inhibitory effect; also recorded: moderate inhibitors | neither QR nor TQ has any significant inhibitory effect | moderate competitive inhibitor | potent competitive inhibitor | strong inhibitory effect | – | – | – | –
2 | CC1=CC(=O)C(C(C)C)=CC1=O [TQ, Thymoquinone] | neither QR nor TQ has any significant inhibitory effect | – | moderate to strong inhibitory effect | moderate inhibitory effect | neither QR nor TQ has any significant inhibitory effect | – | – | no inhibitory effect | marked decrease | 92 | 32.0 | 17.4
